From US20240182445A1 (ONO PHARMACEUTICAL CO., LTD., priority 2019, published 2024) come the findings set out here.

For test [1], the target named is T1, human TREK-1 (Homo sapiens, UniProt O95069).
T1 construct: expressed in transfected cells
T1 sequence (O95069 1-426): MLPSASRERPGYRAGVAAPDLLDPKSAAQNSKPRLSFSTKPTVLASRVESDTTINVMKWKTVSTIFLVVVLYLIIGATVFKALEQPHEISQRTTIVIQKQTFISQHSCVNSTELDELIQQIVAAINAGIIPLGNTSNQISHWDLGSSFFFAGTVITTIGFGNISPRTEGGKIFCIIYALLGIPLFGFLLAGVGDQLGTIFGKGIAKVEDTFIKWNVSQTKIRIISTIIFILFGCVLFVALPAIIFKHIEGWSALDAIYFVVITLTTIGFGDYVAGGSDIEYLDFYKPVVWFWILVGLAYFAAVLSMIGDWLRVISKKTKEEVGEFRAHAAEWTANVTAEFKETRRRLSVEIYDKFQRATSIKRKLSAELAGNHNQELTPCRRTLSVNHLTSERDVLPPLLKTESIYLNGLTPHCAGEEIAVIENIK
Put plainly: TREK-1 Manual Patch Clamp (hMPC) assay. Type of test: cell-based. Particulars: CHO-K1 cells stably expressing human TREK-1; whole-cell current at 0 mV. The procedure: The term “patch clamp technique” herein refers to the “gold standard” technique for evaluating TREK channel pharmacology. The detail method is described below.
CHO-K1 cells stably expressing human TREK-1 or HEK293 cells stably expressing human TREK-2 are plated on glass coverslips, and voltage clamped in the whole-cell configuration of the patch clamp technique. Cells were voltage clamped at a holding potential of −80 mV and the stepped to 0 mV for 500 msec. The voltage was subsequently ramped from −120 mV to +80 mV over a 500 msec duration. This step-ramp protocol was repeated every 10 sec. The bathing solution contained the following: 135 mM NaCl, 5 mM KCl, 2 mM CaCl2, 1 mM MgCl2, 5 mM D-Glucose, 10 mM HEPES, 10 mM sucrose (adjusted to pH 7.4 with NaOH, 300 mosmol/kg H2O). The pipette solution contained the following: 135 mM KCl, 2 mM MgCl2, 1 mM EGTA, 10 mM HEPES, 2 mM Na2ATP (adjusted to pH 7.35 with KOH, 285 mosmol/kg H2O). Test compounds were dissolved into the bathing solution. Experiments on TREK-2 were terminated with the addition of the control compound (tert-butyl (3-((4-(benzyloxy)-2-methylphenyl)carbamoyl)-4-chlorophenyl)carbamate) so that maximal inhibition could be determined. The effects of test compound on the currents were calculated at 0 mV using the following equations:
For CHO cells expressing TREK-1 channel: % inhibition=(1-post current/pre current)×100
The compounds shown in Table 2 were prepared in an analogous manner with the appropriate starting materials, and evaluated in our TREK-1 Manual Patch Clamp (hMPC) assay.

The target in test [2] is T1, human TREK-1. In words: TREK-1 Thallium (Tl+) flux assay, Method 1. The format is cell-based. Particulars: for IC50: TREK-1 Thallium (Tl+) flux assay. An outline of the steps:
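Readout: Thallos fluorescence ratio, taken 25 s post-thallium relative to the pre-thallium baseline average, then converted to % inhibition. Cells were CHO-K1 stably expressing human TREK-1, dye-loaded and exposed to test compound (vehicle 0.3% DMSO) for 10 min prior to thallium stimulation.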

The mark [3] stands for this setting: values without footnote *12 are Method 1.
The mark [4] stands for this setting: no *^12 (Method 2) mark on these rows.

One may read the IC50 as the point on the concentration scale where inhibition reaches its midpoint. A high value points to a need for much substance. Take `Cc1cc(C#Cc2ccccc2)cnc1NC(=O)c1c(Cl)cnn1C1CCn2nccc2C1` (centres unmarked) [Compound 9, 4-chloro-N-(3-methyl-5-(phenylethynyl)pyridin-2-yl)-1-(4,5,6,7-tetrahydropyrazolo[1,5-a]pyridin-5-yl)-1H-pyrazole-5-carboxamide]: the IC50 in test [1] turned out to be 20 nM; in test [2] (setting [3]), 140 nM.

In the case of `CC(=O)N[C@H]1CC[C@@H](n2ncc(Cl)c2C(=O)Nc2ncc(C#Cc3ccccc3)cc2F)CC1` [Compound 13, 1-(cis-4-acetamidocyclohexyl)-4-chloro-N-(3-fluoro-5-(phenylethynyl)pyridin-2-yl)-1H-pyrazole-5-carboxamide], the IC50 in test [1] stood at 60 nM; in test [2] (setting [3]), 120 nM.

For `CC(=O)N1CCC(n2ncc(Cl)c2C(=O)Nc2ncc(C#Cc3ccc(F)cc3)cc2F)CC1` [Compound 7, 1-(1-acetylpiperidin-4-yl)-4-chloro-N-(3-fluoro-5-((4-fluorophenyl)ethynyl)pyridin-2-yl)-1H-pyrazole-5-carboxamide], the IC50 was determined as 30 nM in test [1] and 140 nM in test [2] (setting [3]).

On to `CC(=O)N1CCC(F)(Cn2ncc(Cl)c2C(=O)Nc2ncc(C#Cc3ccccc3)cc2C)CC1` [Compound 15, 1-((1-acetyl-4-fluoropiperidin-4-yl)methyl)-4-chloro-N-(3-methyl-5-(phenylethynyl)pyridin-2-yl)-1H-pyrazole-5-carboxamide], for which the IC50 amounted to 290 nM in test [1] and 400 nM in test [2] (setting [3]).

With `CC(=O)N1CCC(n2ncc(Cl)c2C(=O)Nc2ncc(C#Cc3ccccc3)cc2F)CC1` [Compound 6, 1-(1-acetylpiperidin-4-yl)-4-chloro-N-(3-fluoro-5-(phenylethynyl)pyridin-2-yl)-1H-pyrazole-5-carboxamide], the IC50 in test [1] and in test [2] (setting [3]) was 70 nM in each case.

`CC(=O)N1CC(F)(Cn2ncc(Cl)c2C(=O)Nc2ncc(C#Cc3ccccc3)cc2C)C1` [Compound 215, 1-((1-acetyl-3-fluoroazetidin-3-yl)methyl)-4-chloro-N-(3-methyl-5-(phenylethynyl)pyridin-2-yl)-1H-pyrazole-5-carboxamide]: the IC50 in test [1] was 130 nM; in test [2] (setting [4]) it was 330 nM.

As for `O=C(Nc1ncc(C#Cc2ccccc2)cc1F)c1c(Cl)cnn1C1CCN(C(=O)C2COCCO2)CC1` (centres unmarked) [Compound 11, 1-(1-(1,4-dioxane-2-carbonyl)piperidin-4-yl)-4-chloro-N-(3-fluoro-5-(phenylethynyl)pyridin-2-yl)-1H-pyrazole-5-carboxamide], the IC50 was 100 nM in test [1] and 120 nM in test [2] (setting [3]).

As to `Cc1cc(C#Cc2ccccc2)cnc1NC(=O)c1c(Cl)cnn1[C@@H]1CCOC1` [Compound 3, (R)-4-chloro-N-(3-methyl-5-(phenylethynyl)pyridin-2-yl)-1-(tetrahydrofuran-3-yl)-1H-pyrazole-5-carboxamide], the IC50 in test [1] turned out to be 530 nM; in test [2] (setting [3]), 360 nM.

Turning to `CC(=O)N[C@H]1CC[C@@H](n2ncc(Cl)c2C(=O)Nc2ncc(C#Cc3ccc(F)cc3)cc2C)CC1` [Compound 14, 1-(cis-4-acetamidocyclohexyl)-4-chloro-N-(5-((4-fluorophenyl)ethynyl)-3-methylpyridin-2-yl)-1H-pyrazole-5-carboxamide], the IC50 in test [1] was found to be 2 nM; in test [2] (setting [3]) it was 260 nM.

Turning to `O=C(Nc1ncc(C#Cc2ccccc2)cc1F)c1c(Cl)cnn1C[C@H]1COCCO1` [Compound 4, (S)-1-((1,4-dioxan-2-yl)methyl)-4-chloro-N-(3-fluoro-5-(phenylethynyl)pyridin-2-yl)-1H-pyrazole-5-carboxamide], the figures for the IC50 in test [1] and in test [2] (setting [3]) were 70 nM and 220 nM, respectively.

For the compound `CC(=O)N1CCC(n2ncc(Cl)c2C(=O)Nc2ncc(C#Cc3ccccc3)cc2C)CC1` [Compound 5, 1-(1-acetylpiperidin-4-yl)-4-chloro-N-(3-methyl-5-(phenylethynyl)pyridin-2-yl)-1H-pyrazole-5-carboxamide], the IC50 in test [1] came to 60 nM; in test [2] (setting [3]), 70 nM.

On to `Cc1cc(C#Cc2ccccc2)cnc1NC(=O)c1c(Cl)cnn1CC1COCCO1` (centres unmarked) [Compound 1, 1-((1,4-dioxan-2-yl)methyl)-4-chloro-N-(3-methyl-5-(phenylethynyl)pyridin-2-yl)-1H-pyrazole-5-carboxamide], for which the IC50 in test [1] turned out to be 170 nM; in test [2] (setting [3]), 670 nM.

On to `Cc1cc(C#Cc2ccccc2)cnc1NC(=O)c1c(Cl)cnn1CC1CCOCC1` [Compound 2, 4-chloro-N-(3-methyl-5-(phenylethynyl)pyridin-2-yl)-1-((tetrahydro-2H-pyran-4-yl)methyl)-1H-pyrazole-5-carboxamide], for which the IC50 in test [1] was found to be 60 nM; in test [2] (setting [3]), 200 nM.

On to `Cc1cc(C#Cc2cccs2)cnc1NC(=O)c1c(Cl)cnn1C[C@H]1COCCO1` [Compound 343, (S)-1-((1,4-dioxan-2-yl)methyl)-4-chloro-N-(3-methyl-5-(thiophen-2-ylethynyl)pyridin-2-yl)-1H-pyrazole-5-carboxamide], for which, in test [2] (setting [4]), the midpoint of inhibition, the IC50, lay at 760 nM.

Compound `O=C(Nc1ncc(C#Cc2ccccc2)cc1F)c1c(Cl)cnn1C1CCN(C(=O)C2CCCC2)CC1` [Compound 299, 4-chloro-1-(1-(cyclopentanecarbonyl)piperidin-4-yl)-N-(3-fluoro-5-(phenylethynyl)pyridin-2-yl)-1H-pyrazole-5-carboxamide] yielded an IC50 in test [2] (setting [4]) of 540 nM.

The compound `O=C(Nc1ncc(C#Cc2ccccc2)cc1F)c1c(Cl)cnn1CCC1CCN(C(=O)C2CC2)CC1` [Compound 56, 4-chloro-1-(2-(1-(cyclopropanecarbonyl)piperidin-4-yl)ethyl)-N-(3-fluoro-5-(phenylethynyl)pyridin-2-yl)-1H-pyrazole-5-carboxamide] registered an IC50 in test [2] (setting [3]) of 140 nM.

Compound `Cc1cc(OCc2ccccc2)ccc1NC(=O)c1c(Cl)cnn1C1CC2(C1)CN(C(=O)C(C)C)C2` [Compound 398, N-(4-(benzyloxy)-2-methylphenyl)-4-chloro-1-(2-isobutyryl-2-azaspiro[3.3]heptan-6-yl)-1H-pyrazole-5-carboxamide] had an IC50 in test [2] (Method 1) of 1740 nM.

In turn, `Cc1cc(C#Cc2ccccc2)cnc1NC(=O)c1c(Cl)cnn1C[C@@H]1CCN(C(=O)C(C)C)C[C@H]1F` [Compound 222, 4-chloro-1-(((3S,4S)-3-fluoro-1-isobutyrylpiperidin-4-yl)methyl)-N-(3-methyl-5-(phenylethynyl)pyridin-2-yl)-1H-pyrazole-5-carboxamide] yielded an IC50 in test [2] (setting [4]) of 340 nM.

Take `Cc1cc(C#Cc2cccc(F)c2)cnc1NC(=O)c1c(Cl)cnn1CC1CCN(C(=O)C2COCCO2)CC1` (centres unmarked) [Compound 104, 1-((1-(1,4-dioxane-2-carbonyl)piperidin-4-yl)methyl)-4-chloro-N-(5-((3-fluorophenyl)ethynyl)-3-methylpyridin-2-yl)-1H-pyrazole-5-carboxamide]: in test [2] (setting [3]), the IC50 was found to be 190 nM.

For the compound `Cc1cc(C#Cc2ccccc2)cnc1NC(=O)c1c(Cl)cnn1C1CCN(C(=O)C(C)C)C1` (centres unmarked) [Compound 136, 4-chloro-1-(1-isobutyrylpyrrolidin-3-yl)-N-(3-methyl-5-(phenylethynyl)pyridin-2-yl)-1H-pyrazole-5-carboxamide], the IC50 in test [2] (setting [3]) came out at 220 nM.

As to `Cc1cc(C#Cc2ccccc2)cnc1NC(=O)c1c(Cl)cnn1CCN1CCN(C(=O)OC(C)(C)C)CC1` [Compound 323, tert-butyl 4-(2-(4-chloro-5-((3-methyl-5-(phenylethynyl)pyridin-2-yl)carbamoyl)-1H-pyrazol-1-yl)ethyl)piperazine-1-carboxylate], in test [2] (setting [4]), it took 630 nM to reach half-maximal inhibition (IC50).

In general, inhibition refers to the relative decrease from the control value, in per cent. On to `O=C(Nc1ncc(C#Cc2cccs2)cc1F)c1nn(CCC2CCN(C(=O)C3CC3)CC2)cc1Cl` [Compound 452, 4-chloro-1-(2-(1-(cyclopropanecarbonyl)piperidin-4-yl)ethyl)-N-(3-fluoro-5-(thiophen-2-ylethynyl)pyridin-2-yl)-1H-pyrazole-3-carboxamide], for which, in test [2] (read-out: Tl^+ Assay % inhibition at 30 uM (Minus value indicates activation of TREK-1), at 30 uM, CHO-K1 cells stably expressing human TREK-1, minus = activation), the inhibition at 30 µM is -62%.
